Laboratory results reported in ChEMBL document CHEMBL1130419, “8-(1H-imidazol-1-yl)-7-nitro-4(5H)-imidazo[1,2-alpha]quinoxalinone and related compounds: synthesis and structure-activity relationships for the AMPA-type non-NMDA receptor” (J Med Chem, 1997).

What was measured:
[1] = target: T1, Glutamate receptor ionotropic, AMPA (Rattus norvegicus, UniProt P19490+P19491+P19492+P19493); experiment: Inhibition of [3H]AMPA binding to Ionotropic glutamate receptor from rat whole brain.
Glutamate NMDA receptor [2] = experiment: The compound was tested for its ability to inhibit [3H]Glu binding to N-methyl-D-aspartate glutamate receptor from rat whole brain.
Rattus norvegicus [3] = species on record: Rattus norvegicus; experiment: The compound was tested for anti-KA-Induced Neurotoxicity in rat primary hippocampal cultures.; type: functional; details: Hippocampus
Glutamate NMDA receptor [4] = experiment: The compound was tested for its ability to inhibit [3H]Gly binding to N-methyl-D-aspartate glutamate receptor from rat whole brain.
[5] = target: T1, Glutamate receptor ionotropic, AMPA; experiment: The compound was tested for its ability to inhibit [3H]AMPA binding to Ionotropic glutamate receptor AMPA from rat whole brain
Rattus norvegicus [6] = species on record: Rattus norvegicus; experiment: The compound was tested for anti-KA-Induced Neurotoxicity in rat primary hippocampal cultures; type: functional; details: Hippocampus
Glutamate NMDA receptor [7] = experiment: The compound was tested for its ability to inhibit [3H]Gly binding to N-methyl-D-aspartate glutamate receptor from rat whole brain

Structure (SMILES)	Ki [1] [nM]	other results
O=[N+]([O-])c1cc2nc(O)c3nccn3c2cc1-n1ccnc1	57	Ki (Glutamate NMDA receptor [2]): > 300000 nM; IC50 (Rattus norvegicus [3]): 300 nM; Ki (Glutamate NMDA receptor [4]): > 300000 nM
NS(=O)(=O)c1cccc2c1c([N+](=O)[O-])cc1nc(O)c(O)nc12 [NBQX]		IC50 (Rattus norvegicus [3]): 380 nM
O=[N+]([O-])c1cc2nc(O)c3nncn3c2cc1-n1ccnc1	190	
Oc1nc2cc(C(F)(F)F)c(-n3ccnc3)cc2n2ccnc12	66	IC50 (Rattus norvegicus [3]): 320 nM
CCC1CN=C2C(=O)Nc3cc([N+](=O)[O-])c(-n4ccnc4)cc3N21 (configuration not stated)	150	
CCCc1nnc2c(O)nc3cc([N+](=O)[O-])c(-n4ccnc4)cc3n12		Ki [5]: 99 nM
Cc1nccn1-c1cc2nc(O)c(O)nc2cc1[N+](=O)[O-]	390	
O=c1[nH]c2cc(-n3ccnc3)c([N+](=O)[O-])cc2[nH]c1=O [YM-90K]		IC50 (Rattus norvegicus [3]): 810 nM
CCc1cnc2c(O)nc3cc([N+](=O)[O-])c(-n4ccnc4)cc3n12	20	
O=c1[nH]c2cc([N+](=O)[O-])c(-n3ccnc3)cc2n(O)c1=O		IC50 (Rattus norvegicus [6]): 310 nM; Ki (Glutamate NMDA receptor [7]): 4200 nM
CCCCc1nnc2c(O)nc3cc([N+](=O)[O-])c(-n4ccnc4)cc3n12		Ki [5]: 70 nM
CCc1nnc2c(O)nc3cc([N+](=O)[O-])c(-n4ccnc4)cc3n12	48	
Cc1nccn1-c1cc2c(cc1[N+](=O)[O-])nc(O)c1ncc(C)n12	> 10000	

More lines, main results first:

Ki [1] [nM]	Structure (SMILES)	other results
130	CCCn1c(=O)c(=O)[nH]c2cc([N+](=O)[O-])c(-n3ccnc3)cc21	
> 100000	O=C1Nc2cc(-n3ccnc3)c([N+](=O)[O-])cc2C1=O	
96	Cc1nnc2c(O)nc3cc([N+](=O)[O-])c(-n4ccnc4)cc3n12	
6600	CCCc1nnc2c(O)nc3cc(-n4ccnc4)c([N+](=O)[O-])cc3n12	
